From ChEMBL document CHEMBL1140860, “Synthesis and evaluation of dihydroartemisinin and dihydroartemisitene acetal dimers showing anticancer and antiprotozoal activity” (Bioorg Med Chem, 2009)

What was measured:
Leishmania donovani = assay: Antileishmanial activity against Leishmania donovani promastigotes after 48 hrs by alamar-blue assay; assay type: functional, organism-based
[1] = Selectivity index, ratio of TC50 for african green monkey (Cercopithecus aethiops) Vero cells to IC50 for chloroquine-sensitive Plasmodium falciparum D6; assay type: toxicity, cell-based
[2] = Selectivity index, ratio of TC50 for african green monkey (Cercopithecus aethiops) Vero cells to IC50 for chloroquine-resistant Plasmodium falciparum W2; assay type: toxicity, cell-based
[3] = Cytotoxicity against african green monkey Vero cells after 48 hrs by neutral red assay; assay type: cell-based; details: chlorocebus sabaeus, read-out: TC50
Plasmodium falciparum [4] = assay: Antimalarial activity after 72 hrs against chloroquine-resistant Plasmodium falciparum W2 infected erythrocytes by LDH assay; assay type: functional, organism-based; details: W2, 72 h
Plasmodium falciparum [5] = assay: Antimalarial activity after 72 hrs against chloroquine-sensitive Plasmodium falciparum D6 infected in erythrocytes by LDH assay; assay type: functional, organism-based; details: D6, 72 h

Row | Structure (SMILES) | IC50 (Leishmania donovani) [µM] | IC90 (Leishmania donovani) [µM] | selectivity ratio [1] | selectivity ratio [2] | CC50 at 48 h [3] [µM] | IC50 (Plasmodium falciparum [4]) [µM] | IC50 (Plasmodium falciparum [5]) [µM]
1 | C[C@@H]1[C@H](O)[C@@H](C)/C=C/C=C/C=C/C=C/C=C/C=C/C=C/[C@H](O[C@@H]2O[C@H](C)[C@@H](O)[C@H](N)[C@@H]2O)C[C@@H]2O[C@](O)(C[C@@H](O)C[C@@H](O)[C@H](O)CC[C@@H](O)C[C@@H](O)CC(=O)O[C@H]1C)C[C@H](O)[C@H]2C(=O)O [AMPHOTERICIN B] | 0.1 | 0.2 |  |  |  |  | 
2 | C[C@@H]1CC[C@H]2[C@@H](C)C(=O)O[C@@H]3O[C@@]4(C)CC[C@@H]1[C@]32OO4 [ARTEMISININ] |  |  | > 170 | > 106 | > 1690 |  | 
3 | C[C@H]1[C@H](O[C@H]2O[C@@H]3O[C@@]4(C)CC[C@H]5[C@H](C)CC[C@@H]([C@H]2C)[C@@]35OO4)O[C@@H]2O[C@@]3(C)CC[C@H]4[C@H](C)CC[C@@H]1[C@@]24OO3 |  |  | > 37 | > 34 | > 864 | 25.4 | 23.6
